Measured values taken from patent US10934255B2, “Nrf and HIF activators/HDAC inhibitors and therapeutic methods using the same” (THE BOARD OF TRUSTEES OF THE UNIVERSITY OF ILLINOIS, priority 2017, dated 2021).

What was measured:
C57BL/6 mice = assay: Behavioral screening in the SmartCube (SC) platform; assay type: in vivo; conditions: 50 mg/kg ip
Experimental: FIG. 4 contains the SC signature of II-ING-6 (50 mg/kg, ip) showing anxiolytic activity.
Another evidence that II-ING-6 is can cross the BBB was obtained from SC (Frontiers in Neuroscience 2011, 5 (103), p. 1-4) experiment. SC provides a sequence of challenges to mice and captures more than 2,000 features during a 1 hour testing session. These features are analyzed with computer algorithms and data mining approaches to automate the study of mice behavior and compared to a database of behavioral signatures obtained using a set of diverse reference compounds, including antidepressants, cognitive enhancers, antipsychotics, and anxiolytics. In this assay, C57BL/6 mice were injected with compound II-ING-6 at 50 mg/kg (ip).

Nrf2 target genes = assay: In vivo activation of Nrf2 pathway (RT-PCR of target genes); conditions: 3 month old male C57BL/6 mice, 25 mg/kg i.p.
Experimental: The expression of Nrf2 target genes was assessed in 3 month old male C57BL/6 mice administered with II-ING-66 (25 mg/kg i.p.). […] These in vivo data support the in vitro observations of HIF-1α and Nrf2 activation by phenylhydroxamate HDAC inhibitors (Gaisina et al, ACS Chem. Neurosci. 2017).

SMILES	SC signature (behavioral class) (C57BL/6 mice)	Hmox-1 expression in the liver (Nrf2 target genes)	Hmox-1 expression in ventral midbrain and striatum (Nrf2 target genes)	NQO1 expression in ventral midbrain and striatum (Nrf2 target genes)
O=C(NO)c1ccc(CN2CCc3ccc(Cl)cc32)cc1 [II-ING-6, 4-((6-Chloroindolin-1-yl)methyl)-N-hydroxybenzamide]	anxiolytic effect	–	–	–
O=C(NO)c1ccc(CN2C(=O)C(F)(F)c3ccccc32)cc1 [II-ING-66, 4-((3,3-Difluoro-2-oxoindolin-1-yl)methyl)-N-hydroxybenzamide]	–	significantly upregulated	significant increases	significant increases
